Assays:
[1] = Aerodynamic particle size distribution and delivery performance, Andersen Cascade Impactor; assay type: physicochemical
Description: The aerodynamic particle size distribution of each tested formulation was characterized using a Multistage Cascade Impactor according to the procedure described in European Pharmacopoeia 2nd edition, 1995, part V.5.9.1, pages 15-17. In this specific case, an Andersen Cascade Impactor (ACI) was used.
Results were obtained as a mean of 3-4 cans. For each device, 5-25 cumulative actuations were carried out after discarding the first 5.
Deposition of the drug on each ACI plate was determined by high pressure liquid chromatography (HPLC). Mean metered dose was calculated from the cumulative deposition in the actuator and ACI (stages); mean delivered dose was calculated from the cumulative deposition in the ACI. Mean respirable dose (fine particle dose) was obtained from the deposition on Stages 3 to filter corresponding to particles ≦4.71 μm, divided by the number of actuations per experiment.
MAD and associated GSD (standard geometric deviation) values were obtained from probit transformation of cumulative percent undersize—log (ACI effective cut-off particle size diameter) and linear regression analysis of the resultant data, (Ph. Eur. Supp 1999).
The use of a metering chamber volume of 100 μl allows a 320 μg strength variant of the 160 μg formulation.
The delivery characteristics of the formulation in cans equipped with standard Bespack BK 360 actuators with 0.3 mm orifice diameter and a metering chamber volume of 50 μl are reported in Table 2. The use of a metering chamber volume of 100 μl allows a 160 μg strength variant of the 80 μg formulation.
The relevant parameters were determined as described in Example 1.

[2] = inhaled single doses of at least 160 μg; cited from earlier work
[3] = nominal dose 20 μg, HFA 134a, 13% ethanol, 1% glycerol
[4] = nominal dose 20 μg, HFA 134a, 13% ethanol, 1% glycerol, 0.3 mm orifice, 50 μl chamber
[5] = nominal dose 40 μg, HFA 134a, 13% ethanol, 1% glycerol
[6] = nominal dose 40 μg, HFA 134a, 13% ethanol, 1% glycerol, 0.3 mm orifice, 50 μl chamber
[7] = nominal dose 80 μg, HFA 134a, 13% ethanol, 1% glycerol
[8] = nominal dose 80 μg, HFA 134a, 13% ethanol, 1% glycerol, 0.3 mm orifice, 50 μl chamber
[9] = nominal dose 80 μg, HFA 134a, 19% ethanol, without the low volatility component
[10] = nominal dose 160 μg, HFA 134a, 13% ethanol, 1% glycerol
[11] = nominal dose 160 μg, HFA 134a, 13% ethanol, 1% glycerol, 0.3 mm orifice, 50 μl chamber
[12] = nominal dose 160 μg, HFA 134a, 19% ethanol, without the low volatility component
[13] = nominal dose 320 μg, HFA 134a, 13% ethanol, 1% glycerol
[14] = nominal dose 320 μg, HFA 134a, 13% ethanol, 1% glycerol, 0.3 mm orifice, 100 μl chamber

Q: With `CC(C)[N+]1(C)[C@@H]2CC[C@H]1CC(OC(=O)C(CO)c1ccccc1)C2.[Br-]` (stereo partly drawn) [ipratropium bromide] as the molecule, how does the MAD ([1]; Example 1 formulations with glycerol, over all nominal doses) read?
A: 2.2-2.9 μm

Q: And the MAD ([1]; formulation containing an ethanol level of 19% by weight, nominal doses 80 and 160 μg)?
A: 1.2-1.3 μm

Q: And the GSD [1, 3]?
A: 2.1 ± 0.8

Q: And the MAD [1, 3]?
A: 2.4 ± 0.3 μm

Q: What about the Respirable fraction [1, 3] of the same molecule?
A: 33.3 ± 3.8%

Q: And the Delivered dose [1, 4]?
A: 18.8 ± 1.6 µg

Q: And the Metered dose [1, 4]?
A: 20.6 ± 1.6 µg

Q: And the Respirable dose ([1]; nominal dose 20 μg, particles less than 4.7 μm, HFA 134a, 13% ethanol, 1% glycerol)?
A: 6.8 ± 1.1 µg

Q: And the GSD [1, 5]?
A: 2.1 ± 0.1

Q: And the MAD [1, 5]?
A: 2.2 ± 0.1 μm

Q: And the Respirable fraction [1, 5]?
A: 31.5 ± 3.8%

Q: What about the Delivered dose [1, 6] of the same molecule?
A: 38.7 ± 1.9 µg

Q: What about the Metered dose [1, 6] of the same molecule?
A: 42.2 ± 1.8 µg

Q: What about the Respirable dose ([1]; nominal dose 40 μg, particles less than 4.7 μm, HFA 134a, 13% ethanol, 1% glycerol) of the same molecule?
A: 11.7 ± 1.2 µg

Q: What about the GSD [1, 7] of the same molecule?
A: 2.2 ± 0.1

Q: What about the MAD [1, 7] of the same molecule?
A: 2.7 ± 0.3 μm

Q: And the Respirable fraction [1, 7]?
A: 32.0 ± 6.1%

Q: And the Delivered dose [1, 8]?
A: 72.7 ± 0.6 µg

Q: What about the Metered dose [1, 8] of the same molecule?
A: 78.5 ± 0.4 µg

Q: And the Delivered dose [1, 9]?
A: 70.0 ± 1.0 µg

Q: What about the GSD [1, 9] of the same molecule?
A: 4.3 ± 0.4

Q: And the MAD [1, 9]?
A: 1.2 ± 0.1 μm

Q: What about the Respirable dose [1, 9] of the same molecule?
A: 20.0 ± 1.3 µg

Q: What about the Respirable fraction [1, 9] of the same molecule?
A: 28.7 ± 1.5%

Q: What about the Metered dose ([1]; nominal dose 80 μg, HFA 134a, 19% ethanol, without the low volatility component, 0.3 mm orifice, 50 μl chamber) of the same molecule?
A: 76.6 ± 1.6 µg

Q: What about the Respirable dose ([1]; nominal dose 80 μg, particles less than 4.7 μm, HFA 134a, 13% ethanol, 1% glycerol) of the same molecule?
A: 23.3 ± 4.5 µg

Q: And the GSD [1, 10]?
A: 2.3 ± 0.1

Q: And the MAD [1, 10]?
A: 2.5 ± 0.2 μm

Q: And the Respirable fraction [1, 10]?
A: 30.4 ± 3.5%

Q: And the Delivered dose [1, 11]?
A: 149.2 ± 10.7 µg

Q: And the Metered dose [1, 11]?
A: 161.1 ± 12.5 µg

Q: And the Delivered dose [1, 12]?
A: 144.2 ± 1.7 µg

Q: What about the GSD [1, 12] of the same molecule?
A: 6.2 ± 0.2

Q: And the MAD [1, 12]?
A: 1.3 ± 0.2 μm

Q: What about the Respirable dose [1, 12] of the same molecule?
A: 31.4 ± 1.3 µg

Q: What about the Respirable fraction [1, 12] of the same molecule?
A: 21.8 ± 1.1%

Q: And the Metered dose ([1]; nominal dose 160 μg, HFA 134a, 19% ethanol, without the low volatility component, 0.3 mm orifice, 100 μl chamber)?
A: 158.5 ± 2.0 µg

Q: What about the Respirable dose ([1]; nominal dose 160 μg, particles less than 4.7 μm, HFA 134a, 13% ethanol, 1% glycerol) of the same molecule?
A: 45.2 ± 2.5 µg

Q: And the GSD [1, 13]?
A: 2.6 ± 0.1

Q: And the MAD [1, 13]?
A: 2.9 ± 0.2 μm

Q: What about the Respirable fraction [1, 13] of the same molecule?
A: 25.2 ± 1.2%

Q: And the Delivered dose [1, 14]?
A: 290.5 ± 1.9 µg

Q: What about the Metered dose [1, 14] of the same molecule?
A: 321.4 ± 2.0 µg

Q: What about the Respirable dose ([1]; nominal dose 320 μg, particles less than 4.7 μm, HFA 134a, 13% ethanol, 1% glycerol) of the same molecule?
A: 73.2 ± 3.0 µg

Q: And the Duration of action [2]?
A: up to 12 hours
